Experimental data published in patent US10780090B2, “Heteroaryl compounds useful as inhibitors of SUMO activating enzyme” (Millennium Pharmaceuticals, Inc., priority 2014, dated 2020).

Target: recombinant human SAE enzyme (Homo sapiens (Human), UniProt Q9UBT2)
Assay: SAE HTRF enzyme assay
Type: biochemical
Conditions: for inhibition at 0.111 µM: read-out: Percent Inhibition
Procedure, shortened: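 Sumoylation of Ubc9-GST by SAE was followed at low ATP (0.5 μM), pH 7.5, 24° C. for 105 min. Product was detected by HTRF with antibody pairs against Flag and GST tags.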

Chain of recombinant human SAE enzyme (Q9UBT2 whole entry): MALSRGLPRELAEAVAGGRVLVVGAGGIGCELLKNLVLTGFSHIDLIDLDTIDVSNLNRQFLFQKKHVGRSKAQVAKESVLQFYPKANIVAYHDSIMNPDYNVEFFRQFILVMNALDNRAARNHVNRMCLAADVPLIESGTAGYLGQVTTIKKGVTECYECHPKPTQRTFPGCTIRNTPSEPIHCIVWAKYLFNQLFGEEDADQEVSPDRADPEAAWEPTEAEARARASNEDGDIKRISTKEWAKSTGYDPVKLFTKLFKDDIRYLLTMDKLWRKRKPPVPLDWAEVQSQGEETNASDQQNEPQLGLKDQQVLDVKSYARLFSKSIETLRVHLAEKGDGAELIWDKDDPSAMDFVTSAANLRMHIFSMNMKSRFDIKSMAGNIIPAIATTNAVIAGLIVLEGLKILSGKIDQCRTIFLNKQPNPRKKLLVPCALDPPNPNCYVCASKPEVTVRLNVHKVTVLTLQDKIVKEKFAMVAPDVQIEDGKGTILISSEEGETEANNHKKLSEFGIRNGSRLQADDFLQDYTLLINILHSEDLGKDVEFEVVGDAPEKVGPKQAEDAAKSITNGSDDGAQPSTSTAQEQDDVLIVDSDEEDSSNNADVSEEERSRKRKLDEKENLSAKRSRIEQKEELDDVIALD
Chain of recombinant human SAE enzyme (Q9UBE0 whole entry partner): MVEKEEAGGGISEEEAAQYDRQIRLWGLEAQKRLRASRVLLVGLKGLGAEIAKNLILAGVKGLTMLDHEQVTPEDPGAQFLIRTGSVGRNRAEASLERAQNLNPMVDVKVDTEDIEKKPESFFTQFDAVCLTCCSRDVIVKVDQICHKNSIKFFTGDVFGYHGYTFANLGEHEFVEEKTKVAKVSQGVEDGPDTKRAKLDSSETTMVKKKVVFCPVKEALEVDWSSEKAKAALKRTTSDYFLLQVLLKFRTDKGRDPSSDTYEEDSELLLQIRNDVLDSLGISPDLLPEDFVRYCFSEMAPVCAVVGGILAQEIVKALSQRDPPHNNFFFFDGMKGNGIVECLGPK

| SMILES | Percent Inhibition (Concentration 0.111 μM) | IC50 (class symbols A/B/C) [nM] | inhibition at 0.111 µM (Concentration 0.111 μM) [%] | Percent Inhibition (SAE inhibition at compound concentration 0.111 μM) [%] | IC50 (SAE inhibition, class symbols, legend in nM) [nM] |
| --- | --- | --- | --- | --- | --- |
| NS(=O)(=O)OC[C@H]1C[C@@H](Nc2ncncc2C(=O)c2cc([C@H](O)C3CCCCC3)c(Cl)s2)C[C@@H]1O (mixture of isomers) [I-172, [(1R,2S,4R)-4-{[5-({5-chloro-4-[(R)-cyclohexyl(hydroxy)methyl]-2-thienyl}carbonyl)pyrimidin-4-yl]amino}-2-hydroxycyclopentyl]methyl sulfamate and [(1R,2S,4R)-4-{[5-({5-chloro-4-[(S)-cyclohexyl(hydroxy)methyl]-2-thienyl}carbonyl)pyrimidin-4-yl]amino}-2-hydroxycyclopentyl]methyl sulfamate] | 88 | 10 to 100 | – | – | – |
| CN(C)C(c1cccc(Cl)c1)c1csc(C(=O)c2cncnc2NC2CC(O)C(COS(N)(=O)=O)C2)c1 (mixture of isomers) [I-153, [(1R,2S,4R)-4-{[5-({4-[(R)-(3-Chlorophenyl)(dimethylamino)methyl]-2-thienyl}carbonyl)pyrimidin-4-yl]amino}-2-hydroxycyclopentyl]methyl sulfamate and [(1R,2S,4R)-4-{[5-({4-[(S)-(3-chlorophenyl)(dimethylamino)methyl]-2-thienyl}carbonyl)pyrimidin-4-yl]amino}-2-hydroxycyclopentyl]methyl sulfamate] | 86 | 10 to 100 | – | – | – |
| Cc1sc(C(=O)c2cncnc2NC2CC(O)C(COS(N)(=O)=O)C2)cc1C(O)c1cccc(Cl)c1 (mixture of isomers) [I-11, [(1R,2S,4R)-4-{[5-({4-[(R)-(3-chlorophenyl)(hydroxy)methyl]-5-methyl-2-thienyl}carbonyl)pyrimidin-4-yl]amino}-2-hydroxycyclopentyl]methyl sulfamate and [(1R,2S,4R)-4-{[5-({4-[(S)-(3-chlorophenyl)(hydroxy)methyl]-5-methyl-2-thienyl}carbonyl)pyrimidin-4-yl]amino}-2-hydroxycyclopentyl]methyl sulfamate] | 99 | < 10 | – | – | – |
| Cc1sc(C(=O)c2cncnc2N[C@@H]2C[C@H](COS(N)(=O)=O)[C@@H](O)C2)cc1[C@H](O)c1cccc(Cl)c1 (single isomer, unassigned) [I-11b, [(1R,2S,4R)-4-{[5-({4-[(R)-(3-chlorophenyl)(hydroxy)methyl]-5-methyl-2-thienyl}carbonyl)pyrimidin-4-yl]amino}-2-hydroxycyclopentyl]methyl sulfamate or [(1R,2S,4R)-4-{[5-({4-[(S)-(3-chlorophenyl)(hydroxy)methyl]-5-methyl-2-thienyl}carbonyl)pyrimidin-4-yl]amino}-2-hydroxycyclopentyl]methyl sulfamate] | 99 | < 10 | – | – | – |
| N[C@H](c1cccc(Cl)n1)c1cc(C(=O)c2cncnc2N[C@@H]2C[C@H](COS(N)(=O)=O)[C@@H](O)C2)sc1Cl (single isomer, unassigned) [I-25a, [(1R,2S,4R)-4-{[5-({4-[(S)-amino(6-chloropyridin-2-yl)methyl]-5-chloro-2-thienyl}carbonyl)pyrimidin-4-yl]amino}-2-hydroxycyclopentyl]methyl sulfamate or [(1R,2S,4R)-4-{[5-({4-[(R)-amino(6-chloropyridin-2-yl)methyl]-5-chloro-2-thienyl}carbonyl)pyrimidin-4-yl]amino}-2-hydroxycyclopentyl]methyl sulfamate] | 97 | < 10 | – | – | – |
| COCc1cc(C(=O)c2cncnc2N[C@@H]2C[C@H](COS(N)(=O)=O)[C@@H](O)C2)sc1Cl [I-218, {(1R,2S,4R)-4-[(5-{[5-Chloro-4-(methoxymethyl)-2-thienyl]carbonyl}pyrimidin-4-yl)amino]-2-hydroxycyclopentyl}methyl sulfamate] | – | 100 to 1000 | 33 | – | – |
| NS(=O)(=O)OC[C@H]1C[C@@H](Nc2ncncc2C(=O)c2cc(CC3=CCOCC3)cs2)C[C@@H]1O [I-196, {(1R,2S,4R)-4-[(5-{[4-(3,6-dihydro-2H-pyran-4-ylmethyl)-2-thienyl]carbonyl}pyrimidin-4-yl)amino]-2-hydroxycyclopentyl}methyl sulfamate] | – | 10 to 100 | 63 | – | – |
| CO[C@H](c1cccc(Cl)c1)c1cc(C(=O)c2cncnc2N[C@@H]2C[C@H](COS(N)(=O)=O)[C@@H](O)C2)sc1Cl (single isomer, unassigned) [I-90a, [(1R,2S,4R)-4-{[5-({5-chloro-4-[(R)-(3-chlorophenyl)(methoxy)methyl]-2-thienyl}carbonyl)pyrimidin-4-yl]amino}-2-hydroxycyclopentyl]methyl sulfamate or [(1R,2S,4R)-4-{[5-({5-chloro-4-[(S)-(3-chlorophenyl)(methoxy)methyl]-2-thienyl}carbonyl)pyrimidin-4-yl]amino}-2-hydroxycyclopentyl]methyl sulfamate] | 98 | < 10 | – | – | – |
| CC(N)(c1cccc(Cl)c1)c1csc(C(=O)c2cncnc2N[C@@H]2C[C@H](COS(N)(=O)=O)[C@@H](O)[C@H]2O)c1 (single isomer, unassigned) [I-8b, [(1R,2R,3S,4R)-4-{[5-({4-[(1S)-1-amino-1-(3-chlorophenyl)ethyl]-2-thienyl}carbonyl)pyrimidin-4-yl]amino}-2,3-dihydroxycyclopentyl]methyl sulfamate or [(1R,2R,3S,4R)-4-{[5-({4-[(1R)-1-amino-1-(3-chlorophenyl)ethyl]-2-thienyl}carbonyl)pyrimidin-4-yl]amino}-2,3-dihydroxycyclopentyl]methyl sulfamate] | 99 | < 10 | – | – | – |
| C[C@](O)(c1cccc(Cl)c1)c1coc(C(=O)c2cncnc2N[C@@H]2C[C@H](COS(N)(=O)=O)[C@@H](O)C2)c1 (single isomer, unassigned) [I-30b, {(1R,2S,4R)-4-[(5-{4-[(1S)-1-(3-chlorophenyl)-1-hydroxyethyl]-2-furoyl}pyrimidin-4-yl)amino]-2-hydroxycyclopentyl}methyl sulfamate or {(1R,2S,4R)-4-[(5-{4-[(1R)-1-(3-chlorophenyl)-1-hydroxyethyl]-2-furoyl}pyrimidin-4-yl)amino]-2-hydroxycyclopentyl}methyl sulfamate] | 88 | 10 to 100 | – | – | – |
| NS(=O)(=O)OC[C@H]1C[C@@H](Nc2ncncc2C(=O)c2cc(Cc3ccccc3)c(Cc3ccccc3)o2)C[C@@H]1O [I-139, [(1R,2S,4R)-4-{[5-(4,5-dibenzyl-2-furoyl)pyrimidin-4-yl]amino}-2-hydroxycyclopentyl]methyl sulfamate] | – | < 10 | 94 | – | – |
| Cc1sc(C(=O)c2cncnc2N[C@@H]2C[C@H](COS(N)(=O)=O)[C@@H](O)C2)cc1[C@H]1NCCc2ccccc21 (single isomer, unassigned) [I-292a, [(1R,2S,4R)-2-hydroxy-4-{[5-({5-methyl-4-[(1S)-1,2,3,4-tetrahydroisoquinolin-1-yl]-2-thienyl}carbonyl)pyrimidin-4-yl]amino}cyclopentyl]methyl sulfamate or [(1R,2S,4R)-2-hydroxy-4-{[5-({5-methyl-4-[(1R)-1,2,3,4-tetrahydroisoquinolin-1-yl]-2-thienyl}carbonyl)pyrimidin-4-yl]amino}cyclopentyl]methyl sulfamate] | – | – | – | 99 | < 10 |
